This is an account of results in BindingDB's records for patent US10308652 (Bristol-Myers Squibb, 2019).

The structures appear in SMILES notation.

This assay concerns the target Tumor necrosis factor (Homo sapiens, UniProt P01375). Description: TNF induced HEK-Blue assay. The method, then: Test compounds serially diluted in DMSO were plated in an assay plate (Labcyte, Cat. #LP-0200) at final concentrations ranging from 0.004 μM to 25μM. TNFα (final concentration 0.5 ng/ml) or CD4OL (final concentration 30 ng/ml) in assay buffer [DMEM, 4.5 g/l glucose (Gibco, Cat. 21063-029), 10% FBS (Sigma, F4135), 1% Penicillin-Streptomycin (Gibco, Cat. 15140-122), 1% Anti-Anti (Gibco, Cat. 15240-112) and 2 mM L-glutamine (Gibco, Cat. 25030-081)] was then added to the assay plate. After a 30 minute pre-incubation at 37° C. and 5% CO2, HEK-Blue-CD40L cells (InvivoGen, Cat. Code hkb-cd40) containing a NF-κB-driven secreted alkaline phosphatase reporter gene were seeded into the assay plate at a density of 20,000 cells per well. This plate was then incubated for 18 h at 37° C. and 5% CO2. Secreted alkaline phosphatase expression was measured using QUANTI-Blue (InvivoGen, Cat. Code rep-qb1) according to manufacturer's specifications and the assay plate was read on a PerkinElmer Envision at 620 nm.

Tumor necrosis factor, sequence (P01375 whole entry): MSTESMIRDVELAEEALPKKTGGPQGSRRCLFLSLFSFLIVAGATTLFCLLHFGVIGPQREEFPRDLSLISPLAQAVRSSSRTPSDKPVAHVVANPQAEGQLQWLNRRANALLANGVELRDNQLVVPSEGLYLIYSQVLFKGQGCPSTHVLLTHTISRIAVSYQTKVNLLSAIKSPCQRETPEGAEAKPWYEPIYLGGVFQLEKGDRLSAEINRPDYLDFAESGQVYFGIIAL

The term IC50 denotes the midpoint of a concentration-inhibition curve. Read a high IC50 as a need for much substance. Compound `CC(C)(O)c1ccc(-c2ccc3nc4c(n3n2)[C@@H](c2ccccc2OC(F)F)NC[C@H]4O)cc1` [US10308652, Example 6] gave an IC50 of less than 1000 nM.
